Data taken from patent US12202840B2, “Compounds for the treatment or alleviation of disorders associated with Tau aggregates” (AC Immune SA, priority 2018, dated 2025).

Test system: Iba1 positive microglia
Test: Iba1 immunoreactivity (microgliosis), study of Example 2
Format: in vivo
Details: rTg4510 mice, once daily by gavage, 20 mg/kg; FIG. 6B
Procedure: Double transgenic rTg4510 mice are an aggressive Tauopathy model expressing the full-length human Tau carrying the P301L mutation (Tau4R0N-P301L) under the control of the tetracycline-inducible CaMKII promoter (Ramsden et al., 2005). Wild-type animals and single transgenic mice expressing only the tetracycline-controlled transactivator (tTA) were used as genotype controls. Mice were treated and tested. The study comprised 4 treatment groups (n=15 female mice/group) with the following group distribution (see Table 6). Compound of the invention or vehicle control were administered once daily by gavage for 12 weeks starting at the age of 5.5 weeks. The Morris Water Maze (MWM) behavioral test was performed after 12.5 weeks of treatment over 5 consecutive days. During MWM testing daily dosing was continued. Behavioral testing (MWM) and biochemical quantification of sarkosyl-insoluble Tau were performed on all mice (n=15 mice/group). Measurement of cortical atrophy and histology for Iba1 were performed on 10 mice/group.
One section per animal from layer 6 was also used to quantify the Iba1 immunoreactivity. […] Sections were imaged using a digital slide scanner (Pannoramic 250 BF Flash+FL, 3D Histech Ltd.) and quantified using the image visualization software CaseViewer and the image analysis software module HistoQuant (3D Histech Ltd.).

`CN(C)[C@@H]1CCc2c(c3ccc(Nc4ccc5sc(N6CCOCC6)nc5c4)nc3n2C)C1` [Example 2] was tested, and the Iba1 immunoreactive area was “significant decrease”.
